Experiments:
[1] = Molar extinction coefficient (UV absorption) in methanol; format: physicochemical; details: at λmax 305 nm in methanol
[2] = Vesicle formation and stability of aqueous dispersion; format: physicochemical
Excerpt: However, this short duration of stability of aqueous suspension is sufficient for conducting the photoprotection experiment.

[3] = test system: hairless skin of inner side of forearm; assay: Photoprotection on human forearm skin exposed to midday sun; melanin content and erythema levels by Mexameter-18; format: in vivo; details: liposomal vs non-vesicle aqueous suspension
Method: Liposomal dispersion composition (200 mg of 5.0% dispersion) of p-methoxy cinnamidopropyldimethylbehenyl ammonium tosylate and a cream preparation containing octyl methoxy cinnamate (200 mg of cream containing 5% OMC) are applied on hairless skin of inner side of forearm (36 cm^2). The forearms are exposed to midday sun for 15 minutes. The melanin content and erythema levels have been measured by Mexameter-18 (Courage+Khazakha, gmbh, Germany) before and after the exposure.

**Q.** For `CCCCCCCCCCCCCCCCCCCCCC[N+](C)(C)CCCNC(=O)c1ccc(N(C)C)cc1.Cc1ccc(S(=O)(=O)[O-])cc1` [p-N,N-dimethylamine benzamidopropyldimethylbehenyl ammonium tosylate], which “Molar extinction coefficient, ε” value [1] is on record?
**A.** 22,200

**Q.** What does the source list for `CCCCCCCCCCCC[N+](C)(C)CCCNC(=O)C=Cc1ccc(OC)cc1.Cc1ccc(S(=O)(=O)[O-])cc1` [p-methoxy cinnamidopropyl dimethyllauryl ammonium tosylate]?
**A.** Stability of dispersion in water ([2]; aqueous suspension): unstable dispersion in water; Vesicle formation ([2]; lipid by itself in water): does not form vesicles

**Q.** For `CCCCCCCCCCCCCCCCCCCCCC[N+](C)(C)CCCNC(=O)C=Cc1ccc(OC)cc1.Cc1ccc(S(=O)(=O)[O-])cc1` [p-methoxy cinnamidopropyldimethylbehenyl ammonium tosylate], which “Photoprotection efficacy compared with p-methoxy cinnamidopropyl dimethyllauryl ammonium tosylate suspension” value [3] is on record?
**A.** much more superior in protecting skin

**Q.** What about the “Molar extinction coefficient, ε” value [1] of the same molecule?
**A.** 23,000

Reference: patent publication US7147866B2, “UV-absorbing lipid vesicles” (Galaxy Surfactants Limited, priority 2004, dated 2006)
